The test addresses Receptor-type tyrosine-protein phosphatase kappa (Homo sapiens) (UniProt Q15262). The experiment in a line: inhibitors of receptor tyrosine phosphatase kappa – biochemical, recombinant human enzyme, DiFMUP fluorescence (AID 404). The settings on record: recombinant PTPRK, at 50 µM, enzyme 34 ng/mL, 25 °C, DTT 5 mM, hits give high values.

Molecules are shown by their SMILES.

Receptor-type tyrosine-protein phosphatase kappa (Homo sapiens), sequence (Q15262 whole entry, looked up): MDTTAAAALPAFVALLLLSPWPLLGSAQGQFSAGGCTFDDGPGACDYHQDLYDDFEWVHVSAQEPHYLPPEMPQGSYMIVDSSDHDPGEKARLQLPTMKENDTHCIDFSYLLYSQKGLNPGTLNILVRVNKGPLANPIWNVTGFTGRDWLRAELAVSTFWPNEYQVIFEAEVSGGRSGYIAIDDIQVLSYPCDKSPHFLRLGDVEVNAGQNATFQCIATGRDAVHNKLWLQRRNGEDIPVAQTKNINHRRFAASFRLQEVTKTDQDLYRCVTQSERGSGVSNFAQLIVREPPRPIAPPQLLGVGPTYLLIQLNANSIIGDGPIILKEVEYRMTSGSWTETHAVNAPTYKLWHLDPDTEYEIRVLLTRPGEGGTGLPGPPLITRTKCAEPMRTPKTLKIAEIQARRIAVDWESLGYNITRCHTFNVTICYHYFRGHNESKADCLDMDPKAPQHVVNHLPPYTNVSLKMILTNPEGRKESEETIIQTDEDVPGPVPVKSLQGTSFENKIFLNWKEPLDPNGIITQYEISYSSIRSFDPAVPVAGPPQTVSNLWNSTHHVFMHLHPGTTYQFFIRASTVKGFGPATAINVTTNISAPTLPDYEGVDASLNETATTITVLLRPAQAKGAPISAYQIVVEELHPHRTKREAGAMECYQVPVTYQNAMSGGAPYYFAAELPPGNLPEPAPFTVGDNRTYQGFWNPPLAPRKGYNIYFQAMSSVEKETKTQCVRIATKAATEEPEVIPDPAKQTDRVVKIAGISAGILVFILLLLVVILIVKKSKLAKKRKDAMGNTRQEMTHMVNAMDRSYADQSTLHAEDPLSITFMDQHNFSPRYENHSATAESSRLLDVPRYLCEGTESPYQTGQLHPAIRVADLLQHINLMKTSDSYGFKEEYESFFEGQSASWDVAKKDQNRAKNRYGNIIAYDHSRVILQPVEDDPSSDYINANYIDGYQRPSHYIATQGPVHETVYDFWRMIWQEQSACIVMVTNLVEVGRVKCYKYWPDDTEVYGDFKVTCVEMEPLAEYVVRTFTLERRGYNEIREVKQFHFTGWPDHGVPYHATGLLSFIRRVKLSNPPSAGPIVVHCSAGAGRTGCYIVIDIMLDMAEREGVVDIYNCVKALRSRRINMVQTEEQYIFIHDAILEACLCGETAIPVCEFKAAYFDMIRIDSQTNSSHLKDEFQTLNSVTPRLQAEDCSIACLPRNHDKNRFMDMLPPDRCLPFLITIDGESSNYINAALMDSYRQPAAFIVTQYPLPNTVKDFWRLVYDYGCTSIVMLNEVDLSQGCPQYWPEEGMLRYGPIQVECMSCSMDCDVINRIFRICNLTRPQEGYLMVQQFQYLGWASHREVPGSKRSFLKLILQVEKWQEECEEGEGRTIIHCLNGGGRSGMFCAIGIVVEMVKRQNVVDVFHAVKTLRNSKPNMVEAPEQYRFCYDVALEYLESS

As usually defined, the inhibition is the change of the read-out against control, counted positive when it falls. `O=C(COc1ccc([N+](=O)[O-])cc1)Nc1ccc(O)cc1C(=O)O`: the inhibition was 20%.

For `Oc1c(Cl)c(Cl)c(O)c2nsnc12`, the inhibition was 12%.

Take `CC(=O)c1ccc2c(c1)C1C=CCC1C(C(=O)O)N2` (configuration not stated): the inhibition was 40%.

Consider `CC1=C(C)OC(Nc2ccc(Br)cc2C(=O)O)C=C1` (configuration not stated), for which the inhibition is 15%.

For the compound `CC(C)CN1C(=O)c2ccc(C(=O)Nc3ccc(O)cc3C(=O)O)cc2C1=O`, the inhibition is 41%.

As to `O=C(O)c1ccc(O)c(C=Nc2ccc3oc(-c4cccc(Cl)c4Cl)nc3c2)c1`, the inhibition was 45%.

For the compound `OO.OO.[K+].[O]=[V].c1cnc2c(c1)ccc1cccnc12`, the inhibition was 96%.

Consider `OO.OO.[K+].[O]=[V].c1ccc(-c2ccccn2)nc1`, for which the inhibition was 93%.

Regarding `O=C(O)c1ccc([O-])cn1.OO.OO.[K+].[K+].[O]=[V]`, the inhibition was 100%.

On to `CC(C)CCN1C(=O)c2ccc(C(=O)Nc3ccc(O)cc3C(=O)O)cc2C1=O`, for which the inhibition is 14%.

For `Cc1ccc2nc(-c3cc(N=Cc4cc(C(=O)O)ccc4O)ccc3O)[nH]c2c1`, the inhibition was 34%.

Turning to `Cc1cc(C)c(N2C(=O)c3ccc(C(=O)Nc4ccc(O)cc4C(=O)O)cc3C2=O)c(C)c1`, the inhibition was 38%.

For the compound `O=C(O)c1ccc(O)cn1.OO.[O]=[V]`, the inhibition was 94%.

As to `[NH-]CO.[NH-]CO.[NH-]CO.[NH-]CO.[O]=[V][O][V]=[O]`, the inhibition was 89%.

Consider `Cc1ccc(N=Cc2cc(C(=O)O)ccc2O)c(O)c1`, for which the inhibition is 20%.

On to `COc1cccc(-c2nc3cc(N=Cc4cc(C(=O)O)ccc4O)ccc3o2)c1`, for which the inhibition was 29%.

For the compound `COc1ccc(-c2nc3cc(N=Cc4cc(C(=O)O)ccc4O)ccc3o2)cc1`, the inhibition is 72%.

With `O=C(O)c1ccc(O)c(/C=N/N(CCO)C2=NS(=O)(=O)c3ccccc32)c1`, the inhibition is 32%.

With `CC(C)(C)NC(=O)CCN(/N=C/c1cc(C(=O)O)ccc1O)C1=NS(=O)(=O)c2ccccc21`, the inhibition is 30%.

Consider `O=C(Nc1ccc(O)cc1C(=O)O)c1ccc(NC(=O)c2ccco2)cc1`, for which the inhibition was 18%.

Regarding `NC1=NC(=O)/C(=C/C=C/c2ccc([N+](=O)[O-])o2)S1`, the inhibition is 24%.

As to `O=C([O-])c1ccccn1.OO.OO.[K+].[K+].[O]=[V]`, the inhibition is 98%.

In the case of `O=C(Nc1ccc(O)cc1C(=O)O)c1ccc2c(c1)C(=O)N(CC1CCCO1)C2=O` (configuration not stated), the inhibition is 12%.

On to `CN(N=O)c1ccc(O)c(O)c1`, for which the inhibition is 96%.

For `F`, the inhibition was 14%.

In the case of `CC1(C)OC(=O)C(=Cc2ccc(Br)o2)C(=O)O1`, the inhibition is 11%.

With `Cc1c(Cl)c(C)c([N+](=O)[O-])c(O)c1C=Nc1ccc(O)cc1C(=O)O`, the inhibition was 78%.

On to `CC(C)(c1ccc(NS(=O)(=O)C(F)(F)F)cc1)c1ccc(C(C)(C)c2ccc(NS(=O)(=O)C(F)(F)F)cc2)cc1`, for which the inhibition was 14%.

With `O=C(O)c1ccc(O)c(C=Nc2cccc(-c3nc4ccccc4o3)c2)c1`, the inhibition was 31%.

On to `O=C1NC(=S)NC(=O)C1=C/C=C/c1ccco1`, for which the inhibition was 22%.

Consider `O=C1NC(=S)S/C1=C\C=C\c1ccc([N+](=O)[O-])o1`, for which the inhibition was 78%.

Take `O=C(O)c1ccc(O)c(C=Nc2ccc3oc(-c4cc(Cl)ccc4Cl)nc3c2)c1`: the inhibition was 15%.

Values taken from PubChem BioAssay AID404 (SGCOxCompounds, 2006).
